These results are taken from patent US20140050779A1, “[…]-2 INHIBITORS AND USES THEREOF” (SINGAPORE HEALTH SERVICES PTE. LTD., priority 2011, published 2014).

Test [1] relates to TG-2. In words: TG-2 colorimetric microassay (transamidase activity) in lysate of treated mouse scleral fibroblasts. As to conditions: for transamidase activity of endogenous cellular TG-2: mouse scleral fibroblasts, 0.1, 1, 10 and 100 μM for 5 days, concentration-dependent. It is filed as cell-based. The protocol: (§1) All cells used in examples described herein were between passages 2-4. Passaged cells were plated at a concentration of 2×10^5/mL into 6 well plates containing DMEM with 10% FBS. […] Old media was removed from wells and 1 mL of drug was added with fresh full medium and incubated at 37° C. Fresh drugs were replaced daily consecutively for the next 5 days to avoid oxidation. The drugs/media was removed and wells were washed twice with 1×PBS. 200 μl of RIPA lysis buffer was added per well and incubated for 5 minutes and cells were scrapped into an eppendorf tube. The cells were stored at −20° C. until sonication. The cells were sonicated on ice thrice at 20% output power for 5 seconds each time and rested 1 minute in between each turn. Cell debris was spun down at 12000 rpm for 20 minutes. The supernatant was poured into a new eppendorf tube and cell concentrations were determined using the Dc Protein assay Kit (Bio-Rad, MA). Passaged cells were plated at a concentration of 1×10^5 into 6 well plates containing DMEM with 10% FBS. […] Freshly prepared muscarinic agents' at base line, 0.1, 1, 10 and 100 μM concentrations were added for 5 days (Table 2). The culture medium was removed and fresh medium containing the same muscarinic drug added every day to avoid drug changes such as atropine oxidation. Cell lysate was collected for relative quantitative (q) PCR and protein analysis at day 5.
(§2) This assay was designed to assess the cross-linking activity of TG-2 between two proteins. TG activity was measured with TG-2 colorimetric Microassay kit (TG-Covtest, Covalab, Cambridge, UK). 150-200 μg of total protein was used per well for the TG-2 assay. Transglutaminase standards (Sigma) were used as a positive control. EDTA was used to inhibit the enzyme activity as a negative control.
(§3) The approximate volume of reagents to use, the wavelengths to use to read absorbance, the incubation times were determined from a previous study that have carried out experiments with similar principles as described in Perez Alea M, Kitamura M, Martin G, Thomas V, Hitomi K, El Alaoui S., “Development of an isoenzyme-specific colorimetric assay for tissue transglutaminase 2 cross-linking activity”, Anal Biochem. 2009 Jun. 15; 389(2):150-6, Epub 2009 March 24. All reagents used and protein coated plates were part of the kit. Biotin cadaverine was reconstituted with 6 ml of deionized water and 90 μl was added into each well of the 96 well plate that comes coated with CBZ-GLN-GLY. The rest of the steps were followed as in the manufacturer's instructions and finally absorbance was read at 450 nm using a microplate reader (TECAN, Austria). All incubations were performed with gentle shaking on a laboratory orbital shaker.
(§4) The TG-2 colorimetric assay serves as a high throughput and quantitative assay to assess transamidase activity. […] In vivo studies with these drugs were also conducted to determine the effect on myopia development (see FIGS. 14 and 15).

The subject of test [2] is mouse eyes treated with −15D spectacle lens. In words: spectacle lens-induced myopia in mice, axial length and refractive error. It is filed as in vivo. The following applies: lens with 0.1% drug; for axial length: vs lens treated eyes; for refractive error: infrared photorefractor. Here is the method:
Topical applications were administered to both eyes at the same time each day (approximately 9:00 AM) commencing on the 12th day (initiation of spectacle lens treatment). A compatible drug level was determined prior to the in vivo use in a tissue culture study with mouse scleral fibroblasts. […] This treatment schedule continued for four weeks starting on post-natal day 12 continued until post-natal day 42. All measurements were taken at post-natal day 42, the equivalent of 4 weeks of spectacle lens wear.
Each eye was refracted every week to measure the refractive error using automated infrared photorefraction as described in Barathi, V. A., Beuerman, R. W., Schaeffel, F., 2009a, “Effects of unilateral topical atropine on binocular pupil responses and eye growth in mice”, Vision Res 49, 383-387. By using Optical Low Coherence Interferometry (OLCI, AC Master, Carl-Zeiss), the axial length of the eye was measured in-vivo as described in Yin G C, Gentle A, McBrien N A, “Muscarinic antagonist control of myopia: a molecular search for the M1 receptor in chick”, Mol. Vis. 2004; 13(10):787-93 and Barathi, V. A., Boopathi, V. G., Yap, E. P., Beuerman, R. W., 2008, “Two models of experimental myopia in the mouse”, Vision Res 48, 904-916. […] Differences of refractive power and axial length between eyes were calculated. Independent t-tests were used to compare experimental and control eyes in wild type and TGM2-deleted or M1-M5 mutant mice.
Right eyes were experimental and left eyes served as contra-lateral control. In vivo axial length was measured at 2 weeks and 4 weeks after treatment. […] Automated infrared photorefractor was used to measure the refractive error measurements.

For test [3], the system named is TG-2. In words: TG-2 colorimetric microassay (transamidase activity) in lysate of treated human scleral fibroblasts. It is filed as cell-based. The following applies: for transamidase activity of endogenous cellular TG-2: human scleral fibroblasts, 0.1, 1, 10 and 100 μM for 5 days, concentration-dependent. The protocol:
as §1, §2, §3, §4

As to `CN1[C@@H]2CC[C@H]1C[C@@H](OC(=O)C(CO)c1ccccc1)C2` (some centres unmarked) [atropine], in the test on TG-2 [1] (mouse scleral fibroblasts, 0.1 μM, saturated at 1, 10 and 100 μM), the “TG-2 activity, strongest reduction” value is “most significantly reduced”. For the same compound, the “transamidase activity of endogenous cellular TG-2” value in the test on TG-2 [1] and with TG-2 [3] was “reduced” in each case. Besides, the axial length entry in test [2] (2 weeks and 4 weeks) is given as “significantly reduced”. In addition, the refractive error entry in test [2] was “shifted from myopic to hyperoic”.

In the case of `C[C@@H]1OC(=O)[C@H]2C[C@H]3CCCC[C@@H]3[C@@H](/C=C/[C@H]3CCC[C@H](C)N3C)[C@@H]12` [himbacine], the “TG-2 activity, strongest reduction among the antagonists” value with TG-2 [1] (mouse scleral fibroblasts) is given as “most significantly reduced”; in the test on TG-2 [3] (human scleral fibroblasts, all concentrations), “most significantly reduced”. Further, the “transamidase activity of endogenous cellular TG-2” value in the test on TG-2 [1] and in the test on TG-2 [3] was “reduced” each time. In the test on TG-2 [1] (mouse scleral fibroblasts, high concentration (100 μM)), the “TG2 activity as compared to atropine” value is on record as “most significantly reduced”. For the same compound, in test [2] (2 weeks and 4 weeks), the “reduction in the mouse myopia progression, among all the drugs” value is “most significant amount of reduction”. In test [2] (2 weeks and 4 weeks), the axial length entry was “significantly reduced”. The refractive error entry in test [2] is given as “shifted from myopic to hyperoic”. The “TG-2 activity as compared to atropine” value with TG-2 [3] (human scleral fibroblasts, himbacine 0.1, 1, 10 & 100 μM, darifenacin 0.1, 1 & 10 μM) is recorded as “more significantly reduced”.
